Results: US20080194585A1, “Fungicidal Pyrazine Derivatives” (priority 2005, published 2008)
Marks after values point to notes of the source that are not given here.

Experiments:
Settings in all cases: 100 = 100% disease control
Plasmopara viticola = assay: Test D: grape downy mildew, spray after inoculation of grape seedlings; type: in vivo
Source text: Upon removal, disease ratings were made. […] A dash (-) indicates no test results.

Phytophthora infestans = assay: whole plant or invertebrate; type: in vivo
Septoria tritici = assay: Test J: wheat leaf blotch, preventive spray on wheat seedlings; type: in vivo
Source text: A dash (-) indicates no test results.

fusarium graminearium = assay: Test I: wheat head scab, preventive spray on wheat seedlings
Description: (the causal agent of wheat head scab) and incubated in a saturated atmosphere at 20° C. for 72 h, and then moved to a growth chamber at 22° C. for 5 days, after which disease ratings were made.

[1] = tested on: Puccinia recondita f. sp. tritici; assay: Test K: wheat leaf rust, preventive spray on wheat seedlings
Botrytis cinerea = assay: Test E: tomato botrytis, preventive spray on tomato seedlings
Septoria nodorum = assay: Test H: wheat glum blotch, preventive spray on wheat seedlings
Description: (the causal agent of wheat glum blotch) and incubated in a saturated atmosphere at 20° C. for 48 h, and then moved to a growth chamber at 22° C. for 5 days, after which disease ratings were made.

[2] = tested on: Erysiphe graminis f. sp. tritici; assay: Test L: wheat powdery mildew, preventive spray on wheat seedlings
Pythium aphanidermatum = assay: Test A: bluegrass pythium blight, preventive spray on bluegrass seedlings
Rhizoctonia oryzae = assay: Test G: turf brown patch, preventive spray on creeping bent grass seedlings
Description: (the causal agent of turf brown patch) and incubated in a saturated atmosphere at 27° C. for 24 h, and then moved to a growth chamber at 27° C. for 5 days, after which disease ratings were made.

[3] = tested on: Colletotrichum orbiculare; assay: Test B: cucumber Colletotrichum anthracnose, preventive spray on cucumber seedlings
[4] = 40 ppm (marked *), 0 = no control
[5] = 200 ppm, 0 = no control relative to controls

| SMILES | Test D disease control rating (Plasmopara viticola; [4]) | Test F disease control rating (Phytophthora infestans; [4]) | Test J disease control rating (Septoria tritici; [4]) | Test I disease control rating (fusarium graminearium; [4]) | Test K disease control rating [1, 4] | Test E disease control rating (Botrytis cinerea; [4]) | Test H disease control rating (Septoria nodorum; [4]) | Test L disease control rating [2, 4] | Test A disease control rating (Pythium aphanidermatum; [4]) | Test G disease control rating (Rhizoctonia oryzae; [5]) [%] | Test B disease control rating [3, 4] | Test G disease control rating (Rhizoctonia oryzae; [4]) | Test D disease control rating (Plasmopara viticola; [5]) [%] | Test F disease control rating (Phytophthora infestans; [5]) [%] | Test J disease control rating (Septoria tritici; [5]) [%] | Test I disease control rating (fusarium graminearium; [5]) [%] | Test L disease control rating [2, 5] [%] | Test A disease control rating (Pythium aphanidermatum; [5]) [%] | Test K disease control rating [1, 5] [%] | Test E disease control rating (Botrytis cinerea; [5]) [%] | other results |
| --- | --- | --- | --- | --- | --- | --- | --- | --- | --- | --- | --- | --- | --- | --- | --- | --- | --- | --- | --- | --- | --- |
| O=c1c(-n2cccn2)nc(Cl)c(-c2c(F)cccc2F)n1-c1ccc(F)cc1 [compound 382] | 0* % | 0* % | 100* % | 0* % | 100* % | 99* % | 99* % | 50* % | 0* % | 16 | 63* % |  |  |  |  |  |  |  |  |  |  |
| Cc1ccn(-c2nc(Cl)c(-c3c(F)cccc3F)n(-c3ccc(F)cc3)c2=O)n1 [compound 383] | 0* % | 0* % | 100* % | 0* % | 100* % | 99* % | 100* % | 99* % | 0* % |  | 63* % | 49* % |  |  |  |  |  |  |  |  |  |
| O=c1c(-n2cccn2)nc(Cl)c(-c2c(F)cccc2F)n1-c1cc(F)cc(F)c1 [compound 384] | 15* % | 0* % | 98* % | 0* % | 100* % | 99* % | 99* % | 59* % | 0* % |  | 90* % | 47* % |  |  |  |  |  |  |  |  |  |
| Cc1ccn(-c2nc(Cl)c(-c3c(F)cccc3F)n(-c3cc(F)cc(F)c3)c2=O)n1 [compound 385] | 0* % | 0* % | 100* % | 0* % | 100* % | 99* % | 99* % | 89* % | 0* % |  | 99* % | 78* % |  |  |  |  |  |  |  |  |  |
| O=c1c(-n2cccn2)nc(Cl)c(-c2c(F)cccc2F)n1-c1ccc(F)cc1F [compound 386] | 57* % | 0* % | 96* % | 0* % | 100* % | 99* % | 100* % | 68* % | 0* % |  | 87* % | 99* % |  |  |  |  |  |  |  |  |  |
| Cc1ccn(-c2nc(Cl)c(-c3c(F)cccc3F)n(-c3ccc(F)cc3F)c2=O)n1 [compound 387] | 0* % | 0* % | 99* % | 0* % | 100* % | 99* % | 89* % | 0* % | 0* % |  | 0* % | 60* % |  |  |  |  |  |  |  |  |  |
| CC(C)Cn1c(-c2c(Cl)cc(C(F)(F)F)cc2Cl)c(Cl)nc(-n2cccn2)c1=O [compound 391] | 0* % | 0* % | 33* % | 0* % | 88* % | 0* % | 0* % | 0* % | 0* % |  | 0* % | 0* % |  |  |  |  |  |  |  |  |  |
| CCC(C)Cn1c(-c2c(F)cc(F)cc2F)c(Cl)nc(C(=O)NOC)c1=O (centres unmarked) [compound 417] |  |  |  |  | 100* % | 99* % | 60* % |  |  |  | 71* % | 0* % | 86 | 93 | 0 | 0 | 76 | 0 |  |  |  |
| CC(=O)Nc1nc(Cl)c(-c2c(F)cccc2F)n(CC(C)C)c1=O [compound 423] |  |  | 46* % |  |  |  |  |  |  | 95 |  |  | 0 | 0 |  | 60 | 97 | 0 | 97 | 100 | Test H disease control rating (Septoria nodorum; [5]): 0%; Test B disease control rating [3, 5]: 0% |
| Cc1nc(C#N)c(=N)n(CC(C)C)c1-c1ccc(F)cc1F [compound 425] |  |  |  |  |  |  |  |  |  | 0 |  |  | 0 | 16 | 3 | 0 | 0 | 0 | 0 | 0 | Test H disease control rating (Septoria nodorum; [5]): 0%; Test B disease control rating [3, 5]: 0% |
| Cc1nc(C(N)=O)c(=N)n(CC(C)C)c1-c1ccc(F)cc1F [compound 427] |  |  |  |  |  |  |  |  |  | 0 |  |  | 0 | 0 | 0 | 0 | 0 | 0 | 0 | 0 | Test H disease control rating (Septoria nodorum; [5]): 0%; Test B disease control rating [3, 5]: 0% |
| CCC(C)Cn1c(-c2ccc(F)cc2F)c(C)nc(C(N)=O)c1=N (centres unmarked) [compound 428] |  |  |  |  |  |  |  |  |  | 0 |  |  | 0 | 0 | 87 | 0 | 0 | 0 | 95 | 49 | Test H disease control rating (Septoria nodorum; [5]): 0%; Test B disease control rating [3, 5]: 0% |
| CC(C)Cn1c(-c2ccc(F)cc2F)c(F)nc(C(N)=O)c1=N [compound 429] |  |  |  |  |  |  |  |  |  | 0 |  |  | 0 | 0 | 0 | 62 | 0 | 88 | 0 | 0 | Test H disease control rating (Septoria nodorum; [5]): 0%; Test B disease control rating [3, 5]: 0% |
